Measurements from publication PMC2747507 (The Pediatric infectious disease journal, 2009).
Read-outs that look alike come from different tables or passages of the source. Numbered stars: 1 amine (or outer) side, 2 acyl side, 3 side chain; on linkers, the order of the positions; unused ones are H or OH. Bridge positions count the residues as written; N and C are the ends. Square brackets hold non-standard residues; d marks the D form. Peptide text beside a SMILES is read from it. * marks the point of attachment. hTyr(3S-OH,4S-OH,3'-OSO3H) = N[C@H](C(=O)O)[C@H](O)[C@@H](O)c1ccc(O)c(OS(=O)(=O)O)c1; Orn(4R-OH,5R-OH) = O=C([C@H](C[C@@H](O)[C@@H](O)N[*:3])N[*:1])[*:2]; Pro(3S-OH,4S-Me) = C[C@H]1CN[C@H](C(=O)O)[C@H]1O; X1 = CCCCCOc1ccc(-c2cc(-c3ccc(C(=O)*)cc3)no2)cc1; Gln(3R-OH) = NC(=O)C[C@@H](O)[C@H](N)C(=O)O; Hyp = O=C(O)[C@@H]1C[C@@H](O)CN1

Columns and labels:
[1] = type: in vivo, human (preterm neonates); conditions: 15 mg/kg/day IV
[2] = cited from earlier work
[3] = cited from earlier work; remark: listed apart in the source
[4] = test system: central nervous system infections; conditions: neutropenic rabbits; cited from earlier work
[5] = type: in vivo, human (preterm neonates)
[6] = neonates <1000 grams (n=7), mean (SD), SD
[7] = neonates ≥1000 grams (n=5), mean (SD), SD
[8] = 12 neonates, 15 mg/kg/day IV for 5 days, not felt related to micafungin

For `CCCCCOc1ccc(-c2cc(-c3ccc(C(=O)N[C@H]4C[C@@H](O)[C@@H](O)NC(=O)[C@@H]5[C@@H](O)[C@@H](C)CN5C(=O)[C@H]([C@H](O)CC(N)=O)NC(=O)[C@H]([C@H](O)[C@@H](O)c5ccc(O)c(OS(=O)(=O)O)c5)NC(=O)[C@@H]5C[C@@H](O)CN5C(=O)[C@H]([C@@H](C)O)NC4=O)cc3)no2)cc1` [micafungin] (X1-[Orn(4R-OH,5R-OH)]T[Hyp][hTyr(3S-OH,4S-OH,3'-OSO3H)][Gln(3R-OH)][Pro(3S-OH,4S-Me)]; lactam 1-C), the “highest observed AUC0–24” value ([1]; preterm neonates, maximum of n=12) was 555.6 µg·h/mL, the Vdss [1, 6] was 1.637(0.657) L/kg and the Vdβ [1, 6] was 0.636(0.370) L/kg. For the same compound, the Vdss [1, 7] was 1.344(0.141) L/kg, the Vdβ [1, 7] was 0.581(0.106) L/kg and the “Vdβ, volume of distribution in the elimination phase” value ([1]; whole cohort n=12, mean (SD), SD) was 0.613(0.282) L/kg. For the same compound, the Cmax ([1]; whole cohort n=12, obtained directly from the data, mean (SD), SD) was 38.4(8.8) ug/mL, the Vdss ([1]; whole cohort n=12, weight-normalized, mean (SD), SD) was 1.515(0.516) L/kg and the “mean CL” value ([2]; 18 neonates > 1000 g, single IV dose 0.75, 1.5 or 3.0 mg/kg) was 0.65 mL/min/kg. For the same compound, the CL ([2]; neonates < 1000g, single dose 0.75 mg/kg, data from 4 patients) was 1.32 mL/min/kg, the “Vdss in neonates from the previous study” value ([2]; single-dose study in neonates) was 0.44 L/kg and the Vdss ([3]; adult studies) was 0.26 L/kg. For the same compound, the “average AUC” value ([3]; adults, 150 mg dose) was 166.7 µg·h/mL, the CL ([3]; adults) was 0.16 mL/min/kg and the CL ([3]; children ages 2–8 years) was 0.38 mL/min/kg. The CL ([3]; children ages 9–17 years) was 0.28 mL/min/kg, the “treatment of central nervous system infections” value [4] was “Successful treatment” and the “reported AE: hypochloremia” value [5, 8] was 33%. The “reported AE: hypokalemia” value [5, 8] was 25%, the “reported AE: hyponatremia” value [5, 8] was 42% and the “reported AE: monocytosis” value [5, 8] was 25%. The “renal toxicity and changes in hematology parameters” value ([5]; 12 neonates, baseline vs end of therapy) was “No evidence of renal toxicity or significant changes in hematology parameters”, the deaths ([5]; 12 neonates, 3 days after completing the course of micafungin) was “One 540 g neonate died on day of life 11 from necrotizing enterocolitis” and the “Potassium, after 5th dose” value ([5]; median (IQR), prior to 1st dose 4.0 (3.4, 4.4), P 0.03) was 4.6 mmol/L.
